In US20080161583A1, “Epimerization methodologies for recovering stereoisomers in high yield and purity” (priority 2006, published 2008):
≈ marks a conversion by molar mass, not a printed value.

Experiment: Solubility of an epimer in a solvent at the epimerization temperature (saturated slurry, filtered sample, HPLC assay)
Assay type: physicochemical
Conditions: saturated slurry in denatured ethanol (2B-3), organic solvent or mixture, thermodynamic from solid
Description: The solubility of a first epimer in a solvent may be determined as follows. Sampling syringes and saturated slurry samples are pre-heated (or pre-chilled) to the desired epimerization temperature, e.g., 65 C or 70 C in some embodiments. The syringe is preheated (or pre-chilled) to the same temperature in a vessel containing only the solvent and the syringe. The syringes may be 5 ml disposable syringes. The saturated slurry samples are prepared by combining the solvent under investigation and enough of the purified first epimer to ensure that at least some precipitate is present so that the sample slurry is saturated. A purified epimer refers to an epimer having a purity of at least 85% by weight with respect to the total weight of epimers, preferably at least 90% by weight, more preferably at least 95% by weight. When both the sample and the syringe are at the desired temperature, 1.5 ml samples are quickly drawn into the syringe. The sampling syringes desirably acquire samples through a suitable filter to avoid bringing solids into the syringe. A 25 mm, 0.45 micron PTFE disk filter is suitable. 1 ml of each sample is blown down and then diluted in 10 ml of a solvent in which the epimer is fully soluble such as methanol. HPLC analysis is then performed to determine the amount of epimer in the diluted sample. […]

solubility (65 C): 23.2 mg/mL (≈ 53.9 mM)
solubility (70 C): 27.1 mg/mL (≈ 62.8 mM)
Structure (SMILES): CC1(C)COC2(CC[C@H](CC(C(=O)O)c3ccc(S(C)(=O)=O)c(Cl)c3)C2)OC1 (some centres unmarked) [R,R epimer]
